Data: patent US8276663B2, “Methods for reducing biological load in subterranean formations” (Halliburton Energy Services Inc., priority 2010, dated 2012)

What was measured:
Format in all cases: physicochemical
[1] = Compatibility of guar-based fluid (DELTA 200) and TTPC, FIG. 5
From the text: The starting viscosity of each of the tested fluids, was as follows: 77.0 for the control, 251.9 for the fluid containing 125 ppm TTPC, 59.7 for the fluid containing 250 ppm TTPC, and 96.8 for the fluid containing 375 pp, TTPC.

[2] = Compatibility of CMHPG fluid (SIROCCO) and TTPC, FIG. 1
Procedure: First, a treatment fluid containing 35 pptg (pounds per thousand gallons) carboxymethyl hydroxypropyl guar (CMHPG) fluid (SIROCCO, commercially available from Halliburton Energy Services, Inc. of Duncan, Okla.) with a pH of approximately 10.1 at 250° F. was tested and found to be compatible with TTPC up to about 250 ppm, as shown in FIG. 1. Not shown in […] is the starting viscosity of each of the tested fluids, which was as follows: 117.1 for the control, 140.1 for the fluid containing 125 ppm TTPC, 116.2 for the fluid containing 250 ppm TTPC, and 147.4 for the fluid containing 375 pp, TTPC.

[3] = Compatibility of guar-based fluid (HYBOR G) and TTPC, FIG. 3
From the text: The starting viscosity of each of the tested fluids, was as follows: 138.1 for the control, 141.3 for the fluid containing 125 ppm TTPC, 125.7 for the fluid containing 250 ppm TTPC, and 128.8 for the fluid containing 375 pp, TTPC.

[4] = Compatibility of HPG-based fluid (HYBOR H) and TTPC, FIG. 2
From the text: Not shown in FIG. 2 is the starting viscosity of each of the tested fluids, which was as follows: 160.2 for the control, 172.9 for the fluid containing 125 ppm TTPC, 185.5 for the fluid containing 250 ppm TTPC, and 188.7 for the fluid containing 375 pp, TTPC.

[5] = Compatibility of guar-based fluid (DELTA 140) and TTPC, FIG. 4
From the text: The starting viscosity of each of the tested fluids, was as follows: 824.2 for the control, 263.7 for the fluid containing 125 ppm TTPC, 567.3 for the fluid containing 250 ppm TTPC, and 721.6 for the fluid containing 375 pp, TTPC.

[6] = Compatibility of CMHPG-based fluid (pHaser Frac) and TTPC, FIG. 6
From the text: The starting viscosity of each of the tested fluids, was as follows: 719.1 for the control, 1182.63 for the fluid containing 30 ppm TTPC, 1067.5 for the fluid containing 60 ppm TTPC, and 1015.8 for the fluid containing 125 pp, TTPC.

- TTPC concentration up to which fluid is compatible ([1]; DELTA 200, 2 gptg Clayfix II, 2.5 gptg BC-200 UC, 204° F.): up to 375 ppm
- starting viscosity of fluid ([1]; DELTA 200, 125 ppm TTPC): 251.9
- starting viscosity of fluid ([1]; DELTA 200, 250 ppm TTPC): 59.7
- starting viscosity of fluid ([1]; DELTA 200, 375 pp, TTPC): 96.8
- starting viscosity of fluid ([2]; 125 ppm TTPC): 140.1
- starting viscosity of fluid ([2]; 250 ppm TTPC): 116.2
- starting viscosity of fluid ([2]; 375 pp, TTPC): 147.4
- TTPC concentration up to which fluid is compatible ([2]; pH approximately 10.1, 250° F.): up to 250 ppm
- TTPC concentration up to which fluid is compatible ([3]; 1 gptg GasPerm 1000, 5 pptg sodium thiosulfate, 225° F.): up to 375 ppm
- starting viscosity of fluid ([3]; 125 ppm TTPC): 141.3
- starting viscosity of fluid ([3]; 250 ppm TTPC): 125.7
- starting viscosity of fluid ([3]; 375 pp, TTPC): 128.8
- TTPC concentration up to which fluid is compatible ([4]; 1 gptg GasPerm 1000, 4% KCl, 225° F.): up to 375 ppm
- starting viscosity of fluid ([4]; 125 ppm TTPC): 172.9
- starting viscosity of fluid ([4]; 250 ppm TTPC): 185.5
- starting viscosity of fluid ([4]; 375 pp, TTPC): 188.7
- TTPC concentration up to which fluid is compatible ([5]; DELTA 140, 2 gptg tetramethylammonium chloride, 3 gptg BC-140, 140° F.): up to 375 ppm
- starting viscosity of fluid ([5]; DELTA 140, 125 ppm TTPC): 263.7
- starting viscosity of fluid ([5]; DELTA 140, 250 ppm TTPC): 567.3
- starting viscosity of fluid ([5]; DELTA 140, 375 pp, TTPC): 721.6
- TTPC concentration up to which fluid is compatible ([6]; 2 gptg tetramethylammonium chloride, 1.1 gptg pH buffer, 1.4 gptg CL-37, 225° F.): up to 125 ppm
- starting viscosity of fluid ([6]; 30 ppm TTPC): 1182.63
- starting viscosity of fluid ([6]; 60 ppm TTPC): 1067.5
- starting viscosity of fluid ([6]; 125 pp, TTPC): 1015.8
SMILES: CCCCCCCCCCCCCC[P+](CCCC)(CCCC)CCCC.[Cl-] [TTPC, tri-n-butyl tetradecyl phosphonium chloride]
